The record followed here is PMC12217463, “Functional and structural analyses of amino acid sequence variation in PDC β-lactamase reveal different mechanistic pathways toward cefiderocol resistance in Pseudomonas aeruginosa” (Antimicrobial Agents and Chemotherapy, 2025).

In brackets after ≈: the same amount, converted by molar mass.

In one data set the target is PDC L293P (Pseudomonas aeruginosa, UniProt P24735, L320P). Put plainly: Steady-state kinetics of purified β-lactamase. Particulars: for Km / kcat: PDC L293P, 10 mM PBS, pH 7.4, room temperature; for Km: antibiotics: determined as Ki app with nitrocefin as reporter substrate; for kcat: direct hydrolysis at substrate concentration at least three times the Km; for Ratio for PDC L293P/PDC-1: ratio of kcat/Km (fold change in catalytic efficiency).

The test system of data set [1] is PAO1 + blaPDC F121L + G220S. The experiment in a line: MIC, broth microdilution. Type of data set: cell-based. The following applies: Pseudomonas aeruginosa.
The target in a further data set is PDC-1 (WT) (Pseudomonas aeruginosa, UniProt P24735). The experiment in a line: Steady-state kinetics of purified β-lactamase. Particulars: kcat/Km relative to PDC-1 (reference = 1).
The target of the next data set is PDC E219K (Pseudomonas aeruginosa, UniProt P24735, E247K). Put plainly: Steady-state kinetics of purified β-lactamase. Particulars: for Km / kcat: PDC E219K, 10 mM PBS, pH 7.4, room temperature; for Km: antibiotics: determined as Ki app with nitrocefin as reporter substrate; for kcat: direct hydrolysis at substrate concentration at least three times the Km; for Ratio for PDC E219K/PDC-1: ratio of kcat/Km (fold change in catalytic efficiency).

The test system of a further data set is PAO1 + blaPDC E219G. Put plainly: MIC, broth microdilution. Type of data set: cell-based. Particulars: Pseudomonas aeruginosa. An excerpt: (§1) We took advantage of a previously constructed and characterized laboratory collection of recombinant P. aeruginosa PAO1 isolates expressing different blaPDC variants, but specifically enriched for this work with additional variants, following the previously described methodology ([17]). […] The final collection comprised 40 recombinant isolates (20 in PAO1 and 20 in PAO ΔpiuC) producing the wild-type PDC-1 variant from PAO1 and 19 derivatives carrying specific amino acid substitutions previously associated with the development of resistance to ceftazidime/avibactam, ceftolozane/tazobactam, or cefiderocol: T70I, F121L, P153L, G156D, A200T, G202S, ΔG202-E219, G214R, P215L, P215S, ΔP215-G222, D217N, E219K, E219G, E219D, S226ins, L293P, F121L + E219K, and F121L + G222S.
(§2) The MICs of ceftazidime, ceftazidime/avibactam, ceftolozane/tazobactam, cefepime, and cefiderocol were determined in triplicate, for all isolates, by reference broth microdilution assays. Avibactam and tazobactam were fixed at 4 mg/L. All assays were performed using cation-adjusted Mueller-Hinton broth (CAMHB), except for cefiderocol, which was determined in all cases using iron-depleted CAMHB, prepared according to CLSI M100 guidelines ([40]). EUCAST v.15.0 clinical breakpoints and guidelines (http://www.eucast.org/clinical_breakpoints/) were used for reference purposes. Reference strains Escherichia coli ATCC 25922, Klebsiella pneumoniae ATCC 700603, and P. aeruginosa ATCC 27853 were used as controls.

For another data set, the system named is PAO1 + blaPDC F121L. The experiment in a line: MIC, broth microdilution. Type of data set: cell-based. Particulars: Pseudomonas aeruginosa.
Source text: as §1, §2
A general note: Broth dilution looks for growth in wells or tubes with falling amounts of substance.

The test system of a further data set is PAO1 + blaPDC P153L. Put plainly: MIC, broth microdilution. Type of data set: cell-based. Particulars: Pseudomonas aeruginosa.
Source text: as §1, §2

The test system of another data set is PAO1 + blaPDC A200T. The experiment in a line: MIC, broth microdilution. The format is cell-based. Particulars: Pseudomonas aeruginosa.
Source text: as §1, §2

Another data set relates to PAO1 + blaPDC D217N. The experiment in a line: MIC, broth microdilution. Particulars: Pseudomonas aeruginosa. Type of data set: cell-based.
Source text: as §1, §2

The next data set relates to PAO1. Put plainly: MIC, broth microdilution. Type of data set: cell-based. The following applies: Pseudomonas aeruginosa; PAO1 wild type, no plasmid-borne PDC; avibactam and tazobactam fixed at 4 mg/L; FDC in iron-depleted CAMHB.
Source text: as §1, §2

Data set [2] has as its system PAO1 + blaPDC F121L + E219K. Put plainly: MIC, broth microdilution. Type of data set: cell-based. Particulars: Pseudomonas aeruginosa.
Source text: as §1, §2

The test system of the next data set is PAO1 + blaPDC P215L. The experiment in a line: MIC, broth microdilution. Type of data set: cell-based. The following applies: Pseudomonas aeruginosa.
Source text: as §1, §2

A further data set relates to PAO1 + blaPDC E219K. The experiment in a line: MIC, broth microdilution. The format is cell-based. The following applies: Pseudomonas aeruginosa.
Source text: as §1, §2

In the next data set the test system is PAO1 + blaPDC G214R. Put plainly: MIC, broth microdilution. The format is cell-based. The following applies: Pseudomonas aeruginosa.
Source text: as §1, §2

In another data set the test system is PAO1 + blaPDC G156D. The experiment in a line: MIC, broth microdilution. Type of data set: cell-based. Particulars: Pseudomonas aeruginosa.
Source text: as §1, §2

The subject of another data set is PAO1 + blaPDC E219D. Put plainly: MIC, broth microdilution. The format is cell-based. Particulars: Pseudomonas aeruginosa.
Source text: as §1, §2

In a further data set the test system is PAO1 + blaPDC G202S. The experiment in a line: MIC, broth microdilution. Type of data set: cell-based. The following applies: Pseudomonas aeruginosa.
Source text: as §1, §2

The test system of the next data set is PAO1 + blaPDC ∆P215-G222. The experiment in a line: MIC, broth microdilution. The format is cell-based. The following applies: Pseudomonas aeruginosa, avibactam and tazobactam fixed at 4 mg/L, FDC in iron-depleted CAMHB.
Source text: as §1, §2

A further data set concerns PAO1 + blaPDC S226ins. The experiment in a line: MIC, broth microdilution. The format is cell-based. The following applies: Pseudomonas aeruginosa, avibactam and tazobactam fixed at 4 mg/L, FDC in iron-depleted CAMHB.
Source text: as §1, §2

The subject of the next data set is PAO1 + blaPDC T70I. Put plainly: MIC, broth microdilution. Type of data set: cell-based. The following applies: Pseudomonas aeruginosa.
Source text: as §1, §2

Another data set deals with PAO1 + blaPDC L293P. Put plainly: MIC, broth microdilution. Type of data set: cell-based. The following applies: Pseudomonas aeruginosa.
Source text: as §1, §2

A further data set has as its system PAO1 + blaPDC-1 (WT). Put plainly: MIC, broth microdilution. Particulars: Pseudomonas aeruginosa, avibactam and tazobactam fixed at 4 mg/L, FDC in iron-depleted CAMHB. The format is cell-based.
Source text: as §1, §2

A further data set has as its system PAO1 + blaPDC ∆G202-E219. The experiment in a line: MIC, broth microdilution. The format is cell-based. Particulars: Pseudomonas aeruginosa, avibactam and tazobactam fixed at 4 mg/L, FDC in iron-depleted CAMHB.
Source text: as §1, §2

Another data set deals with PAO1 + blaPDC P215S. The experiment in a line: MIC, broth microdilution. The format is cell-based. The following applies: Pseudomonas aeruginosa.
Source text: as §1, §2

Data set [3] relates to O=C(Cc1cccs1)N[C@@H]1C(=O)N2C(C(=O)O)=C(/C=C/c3ccc([N+](=O)[O-])cc3[N+](=O)[O-])CS[C@H]12. Put plainly: purified protein, by the assay type. Particulars: other: PDC-1 (WT), antibiotics: determined as Ki app with nitrocefin as reporter substrate, 10 mM PBS, pH 7.4, room temperature.
The test system of data set [4] is CC(C)(O/N=C(\C(=O)N[C@@H]1C(=O)N2C(C(=O)[O-])=C(C[n+]3ccccc3)CS[C@H]12)c1csc(N)n1)C(=O)O. Put plainly: purified protein, by the assay type. The following applies: other: PDC-1 (WT), antibiotics: determined as Ki app with nitrocefin as reporter substrate, 10 mM PBS, pH 7.4, room temperature.
The test system of data set [5] is CC(C)(O/N=C(\C(=O)N[C@@H]1C(=O)N2C(C(=O)[O-])=C(C[N+]3(CCNC(=O)c4ccc(O)c(O)c4Cl)CCCC3)CS[C@H]12)c1csc(N)n1)C(=O)O. Put plainly: purified protein, by the assay type. The following applies: other: PDC-1 (WT), antibiotics: determined as Ki app with nitrocefin as reporter substrate, 10 mM PBS, pH 7.4, room temperature.
In data set [6] the test system is CO/N=C(\C(=O)N[C@@H]1C(=O)N2C(C(=O)[O-])=C(C[N+]3(C)CCCC3)CS[C@H]12)c1csc(N)n1. Put plainly: purified protein, by the assay type. Particulars: other: PDC-1 (WT), antibiotics: determined as Ki app with nitrocefin as reporter substrate, 10 mM PBS, pH 7.4, room temperature.
Data set [7] concerns Cn1c(N)c(NC(=O)NCCN)c[n+]1CC1=C(C(=O)O)N2C(=O)[C@@H](NC(=O)/C(=N\OC(C)(C)C(=O)[O-])c3nsc(N)n3)[C@H]2SC1. Put plainly: purified protein, by the assay type. The following applies: other: PDC-1 (WT), antibiotics: determined as Ki app with nitrocefin as reporter substrate, 10 mM PBS, pH 7.4, room temperature.

One may read the Km as the concentration of substrate that gives half-maximal velocity. As a reminder, the kcat is the number of substrate molecules converted per active site and unit of time at saturation. The MIC is the smallest concentration in the dilution series that meets the test's criterion for growth inhibition. With `CO/N=C(\C(=O)N[C@@H]1C(=O)N2C(C(=O)[O-])=C(C[N+]3(C)CCCC3)CS[C@H]12)c1csc(N)n1` [FEP, cefepime], the “improvement in substrate binding affinity (Km decrease)” value on PDC L293P (PDC L293P relative to PDC-1) is “≈ 29 fold”. Moreover, the Km on PDC L293P amounted to 4.58 ± 0.42 µM; on PDC E219K, 92.5 ± 26.3 µM. Besides, the kcat on PDC L293P was 0.189 ± 0.007 s⁻¹; on PDC E219K, 0.25 ± 0.06 s⁻¹. Further, the “Ratio for PDC L293P/PDC-1” value on PDC L293P worked out at 39.29. Further, the MIC in data set [1] worked out at 32 µg/mL (≈ 66.6 µM); with PAO1 + blaPDC E219G it was 4 µg/mL (≈ 8.32 µM); in the data set with PAO1 + blaPDC F121L, 16 µg/mL (≈ 33.3 µM); in the data set with PAO1 + blaPDC P153L, 32 µg/mL (≈ 66.6 µM); in the data set on PAO1 + blaPDC A200T, 16 µg/mL (≈ 33.3 µM); with PAO1 + blaPDC D217N, 16 µg/mL (≈ 33.3 µM). Moreover, the MIC in the data set on PAO1 came to 2 µg/mL; in [2], 32 µg/mL (≈ 66.6 µM); in the data set on PAO1 + blaPDC P215L, 8 µg/mL (≈ 16.6 µM); with PAO1 + blaPDC E219K it was 32 µg/mL (≈ 66.6 µM); in the data set on PAO1 + blaPDC G214R, 16 µg/mL (≈ 33.3 µM); with PAO1 + blaPDC G156D, 4 µg/mL (≈ 8.32 µM). Besides, the MIC was 8 µg/mL (≈ 16.6 µM) in the data set with PAO1 + blaPDC E219D; 16 µg/mL (≈ 33.3 µM) in the data set on PAO1 + blaPDC G202S; 32 µg/mL in the data set with PAO1 + blaPDC ∆P215-G222; 8 µg/mL with PAO1 + blaPDC S226ins; 16 µg/mL (≈ 33.3 µM) in the data set with PAO1 + blaPDC T70I; 128 µg/mL (≈ 266 µM) with PAO1 + blaPDC L293P. Also, the MIC in the data set on PAO1 + blaPDC-1 (WT) was 16 µg/mL; in the data set with PAO1 + blaPDC ∆G202-E219, 8 µg/mL; in the data set on PAO1 + blaPDC P215S, 8 µg/mL (≈ 16.6 µM). Also, the Ratio at PDC-1 (WT) was determined as 1. Further, the “Ratio for PDC E219K/PDC-1” value on PDC E219K was 2.57.

For the compound `O=C(Cc1cccs1)N[C@@H]1C(=O)N2C(C(=O)O)=C(/C=C/c3ccc([N+](=O)[O-])cc3[N+](=O)[O-])CS[C@H]12` [Nitrocefin, nitrocefin], on PDC L293P, the Km was 6.71 ± 1.28 µM, the kcat was found to be 18.77 ± 4.37 s⁻¹ and the “Ratio for PDC L293P/PDC-1” value was 1.80. Besides, the Ratio at PDC-1 (WT) is on record as 1. For the same compound, at PDC E219K, the Michaelis-Menten constant (Km) turned out to be 24.1 ± 4.01 µM, the kcat is 4.41 ± 0.18 s⁻¹ and the “Ratio for PDC E219K/PDC-1” value was found to be 0.12.

By kcat/Km is commonly meant the turnover number divided by the Michaelis constant. As to “PDC-1 (WT) (Pseudomonas aeruginosa PAO1)”, the Km in data set [3] was 13.98 ± 0.80 µM; in data set [4], 18.08 ± 0.88 µM; in data set [5], 85.29 ± 9.48 µM; in [6], 132.06 ± 23.69 µM; in data set [7], 554.08 ± 3.00 µM. The kcat worked out at 21.9 ± 6.5 s⁻¹ in data set [3]; 0.0082 ± 0.0007 s⁻¹ in data set [4]; 0.0036 ± 0.0007 s⁻¹ in [5]; 0.138 ± 0.009 s⁻¹ in data set [6]; 0.0715 ± 0.0006 s⁻¹ in data set [7]. Further, the kcat/Km in data set [3] turned out to be 1.55e+06 ± 380000 M⁻¹ s⁻¹; in data set [4], 450 M⁻¹ s⁻¹; in data set [5], 40 M⁻¹ s⁻¹; in data set [6], 1050 M⁻¹ s⁻¹; in data set [7], 130 M⁻¹ s⁻¹.
